Results: patent publication US7589186B2, “Isolated hOAT polynucleotide” (priority 1998, dated 2009)

B1: hOAT (Homo sapiens) (protein)
chain: MAFNDLLQQVGGVGRFQQIQVTLVVLPLLLMASHNTLQNFTAAIPTHHCRPPADANLSKNGGLEVWLPRDRQGQPESCLRFTSPQWGLPFLNGTEANGTGATEPCTDGWIYDNSTFPSTIVTEWDLVCSHRALRQLAQSLYMVGVLLGAMVFGYLADRLGRRKVLILNYLQTAVSGTCAAFAPNFPIYCAFRLLSGMALAGISLNCMTLNVEWMPIHTRACVGTLIGYVYSLGQFLLAGVAYAVPHWRHLQLLVSAPFFAFFIYSWFFIESARWHSSSGRLDLTLRALQRVARINGKREEGAKLSMEVLRASLQKELTMGKGQASAMELLRCPTLRHLFLCLSMLWFATSFAYYGLVMDLQGFGVSIYLIQVIFGAVDLPAKLVGFLVINSLGRRPAQMAALLLAGICILLNGVIPQDQSIVRTSLAVLGKGCLAASFNCIFLYTGELYPTMIRQTGMGMGSTMARVGSIVSPLVSMTAELYPSMPLFIYGAVPVAASAVTVLLPETLGQPLPDTVQDLESRKGKQTRQQQEHQKYMVPLQASAQEKNGL

Experiments:
[1] = molecular target: hOAT (Homo sapiens, UniProt Q4U2R8); assay: Uptake of antiviral nucleotides (ADV, CDV, cCDV) in CHO-hOAT versus CHO cells; conditions: for Vmax of uptake by CHO-hOAT / accumulation in CHO-hOAT (in words): CHO-hOAT cells
Protocol: pIRES-hOAT plasmid was transfected into CHO-K1 cells (ATCC CCL61) growing in F-12 nutrient mixture supplemented with 10% fetal bovine serum, 100 U/ml penicillin, and 100 μg/ml streptomycin. 24 hours before transfection, approximately 6×10^6 CHO-K1 cells were seeded into 100-mm Petri dish. At the time of transfection, media was aspirated and 6 ml of fresh media containing 12 μg of pIRES-hOAT and 60 μg of Cytofectin GSV cationic lipid (Glen Research, Sterling, Va.) was added to the cells. Following overnight incubation, selection of stable transformants started in phenol red-free F-12 nutrient mixture containing fetal bovine serum, penicillin and streptomycin as above, plus 1 mg/ml G418 (CLONTECH). […] For the PAH uptake assay, the cells were seeded into 12-well plates at the density of 2×10^5 cell/well. After 48 hours, growth media was aspirated and the cells were washed twice with phosphate buffered saline (PBS). […] After 90 min incubation at 37° C. in the transport buffer, the cells were washed 3-times with ice-cold PBS (2 ml/well) and lysed directly on the plate in the presence of 0.3% Triton X-100 (0.5 ml/well) for 20 min at room temperature. Plates were washed with additional 0.5 ml/well of Triton X-100, the lysate and wash were combined, scintillation fluid was added, and the radioactivity counted.
(§1) Uptake and cytotoxicity of ADV in the two cell lines was compared.

[2] = system: CHO-hOAT cells; assay: Cytotoxicity in CHO-hOAT compared to CHO cells; type: cell-based, Chinese hamster; conditions: for fold more cytotoxic in CHO-hOAT compared to CHO cells: without probenecid
Description: as §1

[3] = substrate: Nc1ccn(C[C@@H](CO)OCP(=O)(O)O)c(=O)n1; assay: cells, lysate or membranes; conditions: other: CHO-hOAT cells; pH 7.2; 37.0 °C
Protocol: (§2) pIRES-hOAT plasmid was transfected into CHO-K1 cells (ATCC CCL61) growing in F-12 nutrient mixture supplemented with 10% fetal bovine serum, 100 U/ml penicillin, and 100 μg/ml streptomycin. 24 hours before transfection, approximately 6×10^6 CHO-K1 cells were seeded into 100-mm Petri dish. At the time of transfection, media was aspirated and 6 ml of fresh media containing 12 μg of pIRES-hOAT and 60 μg of Cytofectin GSV cationic lipid (Glen Research, Sterling, Va.) was added to the cells. Following overnight incubation, selection of stable transformants started in phenol red-free F-12 nutrient mixture containing fetal bovine serum, penicillin and streptomycin as above, plus 1 mg/ml G418 (CLONTECH). […] For the PAH uptake assay, the cells were seeded into 12-well plates at the density of 2×10^5 cell/well. After 48 hours, growth media was aspirated and the cells were washed twice with phosphate buffered saline (PBS). […] Plates were washed with additional 0.5 ml/well of Triton X-100, the lysate and wash were combined, scintillation fluid was added, and the radioactivity counted.

[4] = substrate: Nc1ncnc2c1ncn2CCOCP(=O)(O)O; assay: cells, lysate or membranes; conditions: other: CHO-hOAT cells; pH 7.2; 37.0 °C
Protocol: as §2

Molecule	Vmax of uptake by CHO-hOAT [1]	fold more cytotoxic in CHO-hOAT compared to CHO cells [2] [fold]	accumulation in CHO-hOAT (in words) [1]	other results
Nc1ncnc2c1ncn2CCOCP(=O)(O)O [ADV, Adefovir]	390 pmol/10^6 cells	~500	–	accumulation in CHO-hOAT compared to CHO ([1]; CHO-hOAT vs CHO cells): > 300 fold; fold more susceptible CHO-hOAT than CHO in the presence of PBC ([2]; in the presence of 1 mM PBC): 3 fold
Nc1ccn(C[C@@H](CO)OCP(=O)(O)O)c(=O)n1 [CDV, cidofovir]	1,110 pmol/10^6 cells	> 400	efficiently accumulated	effect of PBC on cytotoxicity (in words) ([2]; CHO-hOAT cells, with PBC): significantly reduced by PBC
Nc1ccn(C[C@H]2COP(=O)(O)CO2)c(=O)n1 [cCDV]	–	–	not	increase of cytotoxicity in CHO-hOAT cells (in words) [2]: increased to much lesser extent
B1	–	–	–	Km [3]: 70 µM; Km [4]: 23 µM
